Where two headings read alike, the source gives them in different places.
Legend:
human recombinant AKR1B1 [1] = molecular target: T1, human recombinant AKR1B1 (Homo sapiens, UniProt P15121); test: AKR1B1 activity assay (NADPH oxidation at 340 nm), dose-dependent inhibition, IC50; assay type: biochemical
T1 construct: made in house
Procedure: One unit of enzyme activity is the amount of enzyme that catalyzes the conversion of 1 µmol of substrate/min in the above assay conditions.
The human recombinant AKR1B1 was expressed and purified to electrophoretic homogeneity, as previously described. […] The purified enzyme was stored at −80 °C in a 10 mM sodium phosphate buffer pH 7.0 containing 2 mM DTT and 30% (w/v) glycerol. Before use, AKR1B1 was extensively dialyzed against 10 mM of a sodium phosphate buffer pH 7.0.

human recombinant AKR1B1 [2] = molecular target: T1, human recombinant AKR1B1; test: Steady state inhibition kinetic analysis (Hanes-Woolf and secondary plots); assay type: biochemical; settings: for Ki’ (appK’i, ESI complex dissociation constant) / Ki: mean ± SD; for Ki: read-out: Ki (appKi, EI complex dissociation constant)
Procedure: The AKR1B1 activity was determined at 37 °C, as previously described, monitoring the decrease in absorbance at 340 nm linked to NADPH oxidation (ε340 = 6.22 mM^−1.cm^−1) using a Biochrom Libra S60 spectrophotometer. The standard assay mixture (0.7 mL) contained in a 0.25 M sodium phosphate buffer pH 6.8, 0.18 mM NADPH, 0.4 M ammonium sulfate, 0.5 mM EDTA, and 4.7 mM GAL. One unit of enzyme activity is the amount of enzyme that catalyzes the conversion of 1 µmol of substrate/min in the above assay conditions.
The kinetic analysis of the experimental rate measurements with different substrates (S) in the presence of inhibitors (I) was performed on the classical inhibition model of action. Here, (I) is considered to intervene into a steady state condition of the reaction, being free to interact with the free enzyme (E), the ES complex or with both, through a rapid equilibrium. Data were analyzed by Hanes-Woolf plots. The apparent dissociation constants ^appKi’ (for the ESI complex) and ^appKi (for the EI complex) were determined from secondary plots of 1/^appVmax and ^appKM/^appVmax as a function of the inhibitor concentration, respectively.

AKR1B1 = settings: known inhibitor co-crystallized with AKR1B1, PDB code 4IGS; cited from earlier work
[3] = 8 mM L-idose, 0.03 mM HNE, 0.07 mM GSHNE

O=C(O[C@@H]1Cc2c(O)cc(O)cc2O[C@@H]1c1cc(O)c(O)c(O)c1)c1cc(O)c(O)c(O)c1 [EGCG, epigallocatechin gallate]
residual activity for HNE reduction, of activity in the absence of inhibitor (human recombinant AKR1B1 [1]; 0.03 mM HNE, at EGCG concentrations equal to its IC50 for L-idose and GSHNE ([…] and […])): 80–90%
ARDI action (differential inhibition of L-idose and GSHNE reduction with respect to HNE) (human recombinant AKR1B1 [1]; [3]): comparable significant (p < 0.0001) ARDI action
type (model) of inhibition (human recombinant AKR1B1 [2]; substrate GSHNE): apparently purely non-competitive type of inhibition
Ki’ (appK’i, ESI complex dissociation constant) (human recombinant AKR1B1 [2]; substrate GSHNE): 144 ± 22 µM
type (model) of inhibition (human recombinant AKR1B1 [2]; substrate HNE): typical uncompetitive model of action
Ki’ (appK’i, ESI complex dissociation constant) (human recombinant AKR1B1 [2]; substrate HNE): 116 ± 11 µM
type (model) of inhibition (human recombinant AKR1B1 [2]; substrate L-idose): mixed type of inhibition
Ki’ (appK’i, ESI complex dissociation constant) (human recombinant AKR1B1 [2]; substrate L-idose): 61 ± 9 µM

Oc1c(F)c(F)c(-c2c(F)c(F)c(O)c(F)c2F)c(F)c1F [JF0064]
activity as AKR1B1 inhibitor (AKR1B1): very active at sub micromolar levels

Oc1cc(O)c2c(c1)O[C@H](c1cc(O)c(O)c(O)c1)[C@H](O)C2 [EGC, epigallocatechin]
ARDI action (differential inhibition of L-idose and GSHNE reduction with respect to HNE) (human recombinant AKR1B1 [1]; [3]): completely ineffective as ARDI
IC50 (human recombinant AKR1B1 [1]; read-out: IC50 values, unaffected by the nature of the substrate): 500 to 700 µM
type (model) of inhibition (human recombinant AKR1B1 [2]; substrate GSHNE): competitive inhibitor
Ki (human recombinant AKR1B1 [2]; substrate GSHNE): 553 ± 87 µM
Ki/Ki’ (human recombinant AKR1B1 [2]; substrate HNE): 2.5
Ki’ (appK’i, ESI complex dissociation constant) (human recombinant AKR1B1 [2]; substrate HNE): 686 ± 63 µM
Ki (human recombinant AKR1B1 [2]; substrate HNE): 1680 ± 289 µM
Ki/Ki’ (human recombinant AKR1B1 [2]; substrate L-idose): 2.5
Ki’ (appK’i, ESI complex dissociation constant) (human recombinant AKR1B1 [2]; substrate L-idose): 496 ± 35 µM

O=C(O)c1cc(O)c(O)c(O)c1 [GA, gallic acid]
ARDI action (differential inhibition of L-idose and GSHNE reduction with respect to HNE) (human recombinant AKR1B1 [1]; [3]): still able to act as an ARDI
IC50 (human recombinant AKR1B1 [1]; IC50, GSHNE reduction, 0.07 mM GSHNE, 8 mU AKR1B1, 37 °C, pH 6.8): 2500 µM
IC50 (human recombinant AKR1B1 [1]; IC50, HNE reduction, 0.03 mM HNE, 8 mU AKR1B1, 37 °C, pH 6.8): 586 µM
IC50 (human recombinant AKR1B1 [1]; IC50, L-idose reduction, 8 mM L-idose, 8 mU AKR1B1, 37 °C, pH 6.8): 196 µM
type (model) of inhibition (human recombinant AKR1B1 [2]; substrate GSHNE): apparent uncompetitive model of action
Ki’ (appK’i, ESI complex dissociation constant) (human recombinant AKR1B1 [2]; substrate GSHNE): 793 ± 102 µM
type (model) of inhibition (human recombinant AKR1B1 [2]; substrate HNE): apparent uncompetitive model of action
Ki’ (appK’i, ESI complex dissociation constant) (human recombinant AKR1B1 [2]; substrate HNE): 253 ± 23 µM
type (model) of inhibition (human recombinant AKR1B1 [2]; substrate L-idose): apparent uncompetitive model of action
Ki’ (appK’i, ESI complex dissociation constant) (human recombinant AKR1B1 [2]; substrate L-idose): 103 ± 7 µM

— PMC7407822, “Aldose Reductase Differential Inhibitors in Green Tea” (Biomolecules, 2020)
